Where two headings read alike, the source gives them in different places.

The record followed here is patent US20130225529A1, “PHOSPHO-ESTER DERIVATIVES AND USES THEREOF” (priority 2012, published 2013).

The format of data set [1] is in vivo, mice. As to conditions: 55° C. hot plate, 30 min after single i.p. dose; 100 mg/kg, PI-PEG 1,600 mg/kg; control 1.91 ± 0.46.
The test system of another data set is U87 cells. The data set can be described thus: 24-h growth inhibition of U87 glioblastoma cells. The format is cell-based. As to conditions: Homo sapiens, U-87 MG; U87, 24 h. As for the experimental part: U87 cells were treated with sulindac and ibuprofen as well as with the compounds. U87 is a human primary glioblastoma cell line, formally known as U-87 MG. This cell line has epithelial morphology, and is one of the most frequently used glioblastoma cell lines.

For the next data set, the system named is A431 skin cancer cells. The data set can be described thus: Cellular uptake in A431 cells (HPLC). Particulars: 100 μM for 1 h.
The test system of the next data set is SW480 cells. Put plainly: Cell cycle by PI staining. It is filed as cell-based, human. As to conditions: 1×IC50 PTI; indomethacin at equimolar concentration; control 56.8.
The test system of another data set is A549 cells. The data set can be described thus: Cell proliferation by BrdU staining. It is filed as cell-based, human. Particulars: 60 μM (indomethacin equimolar). Background: Incorporation of labelled thymidine or its analogues reports DNA synthesis.
The subject of the next data set is SW480 colon cancer cells. The data set can be described thus: SW480 colon cancer xenografts, prevention protocol, PTI. As to conditions: oral gavage; PTI 10 mg/kg/d, indomethacin 2 mg/kg/d; end of study. It is filed as in vivo, mice.
For another data set, the system named is PGE2 production. The data set can be described thus: PGE2 production by A549 cells. The format is cell-based, human.
The conditions of data set [2]: mouse, in vivo, ip.
A short description of data set [3]: Pharmacokinetics after inhalational administration of PS. It is filed as in vivo, mice. As to conditions: after 8 min inhalation, label = analyte.
The nature of data set [4]: Pharmacokinetic study of phosphosulindac amide and sulindac, single oral dose. It is filed as in vivo, mice. As to conditions: mouse, plasma, label = analyte.
A further data set relates to β-catenin signaling. The data set can be described thus: β-catenin transcriptional activity (TOPflash) in HEK293T cells. The format is cell-based. As to conditions: 5 μM each; control 1.23±0.11.
The next data set deals with skin papillomas. Put plainly: DMBA/TPA-induced skin papillomas in FVB mice. The format is in vivo.
The test system of data set [5] is A549 human non-small lung cancer cells. The data set can be described thus: Orthotopic A549 lung tumor model in nude mice. The format is in vivo. Particulars: 200 mg/kg once a week for 8 weeks.
Where [6] appears, read: BALB/c nude, mouse, inhaled or intranasal, plasma.
Setting [7] is: 66 mg/kg, single oral dose of sulindac equimolar to PSA, read-out: AUC0-24 h, sulindac administration.

Source text for skin papillomas: This initiation-promotion protocol leads to papillomas by wk 10, and in a fraction of the mice to SCC by wk 20. […] Criteria similar to those used for human papilloma classification were applied to assess disease progression: hyperplasia→papilloma (Pap 1-3)→microinvasive SCC (M1-3)→invasive SCC. On wk 20, the study was terminated.

As usually defined, the IC50 is the midpoint of a concentration-inhibition curve. For the compound `CCOP(=O)(OCC)OCCCCOC(=O)C(C)c1ccc(CC(C)C)cc1` (centres unmarked) [PI 132], the “latency values (mean±SD)” value in data set [1] turned out to be 8.53 ± 0.81 s. Besides, the IC50 in the data set with U87 cells was 98 µM. For the same compound, in the data set on A431 skin cancer cells, the “fold increase of cellular level over the other two compounds” value is on record as “at least 300 fold”. Also, the “cellular content (cellular extract)” value in the data set on A431 skin cancer cells (limit of detection 2.5 pmol) was determined as 750 pmol.
On to `COc1ccc2c(c1)c(CC(=O)O)c(C)n2C(=O)c1ccc(Cl)cc1` [Indomethacin, indomethacin, reference compound], for which, in the data set with SW480 cells, the “proportion of cells in G0/G1 phase” value amounted to 57.7%. Also, the “decrease of proportion of BrdU positive cells” value in the data set on A549 cells was 15%. The “reduction of tumor growth” value with SW480 colon cancer cells is “no significant effect”. Further, in the data set with PGE2 production, the “PGE2 levels induced by the calcium ionophore A23187” value is recorded as “prevented the increase in PGE2 levels”. Further, in [2], the “AUC0-24 h (for PTI: PTI plus its metabolite)” value was 500 µM·h, the peak plasma level was 127 µM and the “time of peak plasma level” value amounted to 1 h.
Broadly, the Tmax is the time at which the peak concentration occurs. What is called AUC is concentration integrated over time. A higher AUC goes with more exposure. One may read the Cmax as the peak of the concentration-time curve. Turning to `CC1=C(CC(=O)O)c2cc(F)ccc2/C1=C\c1ccc(S(C)(=O)=O)cc1` [Sulindac sulfone 147, sulindac sulfone], the Tmax in data set [3] (BALB/c nude, mouse, inhaled or intranasal, lung, read-out: Tmax) is 8 h. In data set [3] (setting [6]), the AUC is 142 µM·h and the highest level (Cmax) was 10.4 µM. Besides, in [3] (BALB/c nude, mouse, inhaled or intranasal, plasma, read-out: Tmax), the Tmax worked out at 8 h. In addition, the AUC(0-t) in data set [4] (setting [7]) worked out at 93.4 µM·h.
`CSc1ccc(/C=C2/C(C)=C(CC(=O)O)c3cc(F)ccc32)cc1` [Sulindac sulfide 146, sulindac sulfide] came in with an AUC in data set [3] (setting [6]) of 66.9 µM·h. The Tmax in [3] (lung) and in data set [3] (plasma) was 4 h in each case. Also, the AUC(0-t) stood at 691 µM·h in [4] (setting [7]) and 17.9 µM·h in data set [4] (single oral dose 100 mg/kg PSA, read-out: AUC0-24 h, PSA administration).
In turn, `NCCC[C@](N)(C(=O)O)C(F)F` [DFMO, α-difluoromethylornithine, reference compound] registered a luciferase/renilla activity in the data set with β-catenin signaling of 1.18±0.01. Moreover, in the data set with skin papillomas (oral), the “papilloma multiplicity, oral administration” value is recorded as “failed to reduce papilloma multiplicity”. Moreover, in the data set on skin papillomas (topical), the “reduction of tumor burden (average tumor volume/mouse)” value is given as around 90% and the “thickness of the epidermis” value is given as “partial effect”. Besides, the “reduction of tumor number (papillomas/mouse)” value in the data set with skin papillomas (topical application) is given as “merely stabilized disease progression”.
As for `CC(C)Cc1ccc(C(C)C(=O)O)cc1` (centres unmarked) [Ibuprofen, reference compound], in data set [5], the “reduction based on lung tumor weight / lung weight” value is 19% and the “reduction of lung cancer based on fluorescence” value is 57%. This compound displayed an IC50 in the data set with U87 cells of at least 1000 µM.
As for `CC1=C(CC(=O)O)c2cc(F)ccc2/C1=C\c1ccc([S+](C)[O-])cc1` (centres unmarked) [Sulindac], in data set [3] (setting [6]), the AUC was found to be 49.5 µM·h. The AUC(0-t) in [4] (setting [7]) is 385 µM·h. In the data set with U87 cells, this compound yielded an IC50 of at least 1000 µM.
